Measured values published in article PMC5472749, “A covalent PIN1 inhibitor selectively targets cancer cells by a dual mechanism of action” (Nature Communications, 2017).

Biological target: T1, PIN1 (Homo sapiens, UniProt Q13526)
T1 construct: recombinant human PIN1
Test: trypsin-coupled PPIase assay (kinact/Ki; IC50 […]); LC/MS and MALDI MS/MS show a +[…] Da adduct on C113, absent in C113A
Assay type: biochemical
Details: read-out: Ki

T1 sequence (Q13526 whole entry): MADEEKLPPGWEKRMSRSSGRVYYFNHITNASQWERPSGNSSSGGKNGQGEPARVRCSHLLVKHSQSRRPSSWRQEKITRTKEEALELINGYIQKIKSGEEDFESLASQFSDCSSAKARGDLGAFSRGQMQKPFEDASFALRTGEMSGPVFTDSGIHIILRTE

CC(C)(C)c1ccc(S(=O)(=O)/N=C2/C=C(SCC(=O)O)C(=O)c3ccccc32)cc1 [compound 1]
KI (inactivation): 625 ± 325 nM
